Laboratory results from US8802597B2, “Herbicidal pyrimidines” (E I du Pont de Nemours and Company, priority 2003, dated 2014).

Tests used:
Type in all cases: in vivo
[1] = tested on: Russian thistle (Salsola kali); test: Test D pre/postemergence; details: scale 0 to 100 (100 = complete control)
In short: (§1)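 Weed and cereal species treated preemergence, or postemergence at 2–18 cm (1- to 4-leaf stage), with test chemicals in non-phytotoxic solvent with surfactant. Kept in controlled growth environment 15 to 25 days, then rated visually against controls on a 0 (no effect) to 100 (complete control) scale.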

[2] = tested on: catchweed bedstraw (galium; Galium aparine); test: Test D pre/postemergence; details: scale 0 to 100 (100 = complete control)
In short: as §1

[3] = tested on: common chickweed (Stellaria media); test: Test D pre/postemergence; details: scale 0 to 100 (100 = complete control)
In short: as §1

[4] = tested on: wild mustard (Sinapis arvensis); test: Test D pre/postemergence; details: scale 0 to 100 (100 = complete control)
In short: as §1

[5] = tested on: broadleaf signalgrass (Brachiaria platyphylla); test: Test G pre/postemergence
In short: (§2)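 Test chemicals in non-phytotoxic solvent with surfactant applied preemergence to sown seeds or nutlets and postemergence to plants 2–18 cm tall (1- to 4-leaf stage). Greenhouse-held 12–21 days, then visually rated against untreated controls on a 0 (no effect) to 100 (complete control) scale.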

[6] = tested on: annual bluegrass (Poa annua); test: Test G pre/postemergence
In short: as §2

[7] = tested on: dallisgrass (Paspalum dilatatum); test: Test G pre/postemergence
In short: as §2

[8] = tested on: bermudagrass (Cynodon dactylon); test: Test G pre/postemergence
In short: as §2

[9] = tested on: barnyardgrass (Echinochloa crus-galli); test: Test G pre/postemergence
In short: as §2

[10] = tested on: itchgrass (Rottboellia cochinchinensis); test: Test G pre/postemergence
In short: as §2

[11] = tested on: Surinam grass (Brachiaria decumbens); test: Test G pre/postemergence
In short: as §2

[12] = tested on: johnsongrass (Sorghum halepense); test: Test G pre/postemergence
In short: as §2

[13] = Postemergence, 250 g ai/ha, scale 0 to 100
[14] = Postemergence, 500 g ai/ha, scale 0 to 100
[15] = Postemergence, 62 g ai/ha, scale 0 to 100
[16] = Postemergence, 125 g ai/ha, scale 0 to 100
[17] = Postemergence, 375 g ai/ha, scale 0 to 100
[18] = Preemergence, 62 g ai/ha, scale 0-100
[19] = Preemergence, 125 g ai/ha, scale 0-100
[20] = Preemergence, 250 g ai/ha, scale 0-100
[21] = Preemergence, 500 g ai/ha, scale 0-100
[22] = Preemergence, 500 g ai/ha, scale 0 to 100
[23] = Preemergence, 375 g ai/ha, scale 0 to 100

In the case of `CCOC(=O)c1nc(C2CC2)nc(N)c1Br` [Compound 1, ethyl 6-amino-5-bromo-2-cyclopropyl-4-pyrimidinecarboxylate], the “Plant response rating, Russian Thistle” value ([1]; Postemergence, 16 g ai/ha) is reported as 45, the “Plant response rating, Russian Thistle” value ([1]; Postemergence, 31 g ai/ha) is reported as 65 and the “Plant response rating, Russian Thistle” value ([1]; Postemergence, 62 g ai/ha) is reported as 85. For the same molecule, the “Plant response rating, Russian Thistle” value ([1]; Postemergence, 125 g ai/ha) was 100, the “Plant response rating, Russian Thistle” value ([1]; Preemergence, 16 g ai/ha) was 100 and the “Plant response rating, Russian Thistle” value ([1]; Preemergence, 31 g ai/ha) was 100. The “Plant response rating, Russian Thistle” value ([1]; Preemergence, 62 g ai/ha) was 100, the “Plant response rating, Russian Thistle” value ([1]; Preemergence, 125 g ai/ha) was 100 and the “Plant response rating, Galium” value ([2]; Postemergence, 16 g ai/ha) was 95. For the same molecule, the “Plant response rating, Galium” value ([2]; Postemergence, 31 g ai/ha) was 100, the “Plant response rating, Galium” value ([2]; Postemergence, 62 g ai/ha) was 100 and the “Plant response rating, Galium” value ([2]; Postemergence, 125 g ai/ha) was 100. The “Plant response rating, Galium” value ([2]; Preemergence, 16 g ai/ha) was 80, the “Plant response rating, Galium” value ([2]; Preemergence, 31 g ai/ha) was 80 and the “Plant response rating, Galium” value ([2]; Preemergence, 62 g ai/ha) was 100. For the same molecule, the “Plant response rating, Galium” value ([2]; Preemergence, 125 g ai/ha) was 100, the “Plant response rating, Chickweed” value ([3]; Postemergence, 16 g ai/ha) was 65 and the “Plant response rating, Chickweed” value ([3]; Postemergence, 31 g ai/ha) was 65. The “Plant response rating, Chickweed” value ([3]; Postemergence, 62 g ai/ha) was 65, the “Plant response rating, Chickweed” value ([3]; Postemergence, 125 g ai/ha) was 85 and the “Plant response rating, Chickweed” value ([3]; Preemergence, 16 g ai/ha) was 60. For the same molecule, the “Plant response rating, Chickweed” value ([3]; Preemergence, 31 g ai/ha) was 65, the “Plant response rating, Chickweed” value ([3]; Preemergence, 62 g ai/ha) was 70 and the “Plant response rating, Chickweed” value ([3]; Preemergence, 125 g ai/ha) was 75. For the same molecule, the “Plant response rating, Mustard, Wild” value ([4]; Postemergence, 16 g ai/ha) was 60, the “Plant response rating, Mustard, Wild” value ([4]; Postemergence, 31 g ai/ha) was 70 and the “Plant response rating, Mustard, Wild” value ([4]; Postemergence, 62 g ai/ha) was 70. For the same molecule, the “Plant response rating, Mustard, Wild” value ([4]; Postemergence, 125 g ai/ha) was 75, the “Plant response rating, Mustard, Wild” value ([4]; Preemergence, 16 g ai/ha) was 50 and the “Plant response rating, Mustard, Wild” value ([4]; Preemergence, 31 g ai/ha) was 65. For the same molecule, the “Plant response rating, Mustard, Wild” value ([4]; Preemergence, 62 g ai/ha) was 70, the “Plant response rating, Mustard, Wild” value ([4]; Preemergence, 125 g ai/ha) was 90 and the “Plant response rating, Signalgrass” value [5, 13] was 75. The “Plant response rating, Signalgrass” value [5, 14] was 85, the “Plant response rating, Signalgrass” value [5, 15] was 20 and the “Plant response rating, Signalgrass” value [5, 16] was 60. The “Plant response rating, Signalgrass” value [5, 17] was 75, the “Plant response rating, Signalgrass” value [5, 18] was 10 and the “Plant response rating, Signalgrass” value [5, 19] was 70. The “Plant response rating, Signalgrass” value [5, 20] was 75, the “Plant response rating, Signalgrass” value [5, 21] was 75 and the “Plant response rating, Signalgrass” value [5, 22] was 95. For the same molecule, the “Plant response rating, Bluegrass” value [6, 13] was 40, the “Plant response rating, Bluegrass” value [6, 14] was 50 and the “Plant response rating, Bluegrass” value [6, 15] was 20. For the same molecule, the “Plant response rating, Bluegrass” value [6, 16] was 30, the “Plant response rating, Bluegrass” value [6, 17] was 50 and the “Plant response rating, Bluegrass” value [6, 18] was 10. For the same molecule, the “Plant response rating, Bluegrass” value [6, 19] was 30, the “Plant response rating, Bluegrass” value [6, 20] was 85 and the “Plant response rating, Bluegrass” value [6, 22] was 85. The “Plant response rating, Dallisgrass” value [7, 13] was 30, the “Plant response rating, Dallisgrass” value [7, 14] was 30 and the “Plant response rating, Dallisgrass” value [7, 15] was 10. The “Plant response rating, Dallisgrass” value [7, 16] was 20, the “Plant response rating, Dallisgrass” value [7, 17] was 30 and the “Plant response rating, Dallisgrass” value [7, 18] was 0. For the same molecule, the “Plant response rating, Dallisgrass” value [7, 19] was 10, the “Plant response rating, Dallisgrass” value [7, 20] was 50 and the “Plant response rating, Dallisgrass” value [7, 22] was 95. The “Plant response rating, Dallisgrass” value [7, 23] was 95, the “Plant response rating, Bermudagrass” value [8, 13] was 40 and the “Plant response rating, Bermudagrass” value [8, 14] was 50. The “Plant response rating, Bermudagrass” value [8, 15] was 25, the “Plant response rating, Bermudagrass” value [8, 16] was 25 and the “Plant response rating, Bermudagrass” value [8, 17] was 40. The “Plant response rating, Bermudagrass” value [8, 18] was 10, the “Plant response rating, Bermudagrass” value [8, 19] was 20 and the “Plant response rating, Bermudagrass” value [8, 20] was 30. The “Plant response rating, Bermudagrass” value [8, 22] was 70, the “Plant response rating, Bermudagrass” value [8, 23] was 70 and the “Plant response rating, Barnyardgrass” value [9, 13] was 70. For the same molecule, the “Plant response rating, Barnyardgrass” value [9, 14] was 75, the “Plant response rating, Barnyardgrass” value [9, 15] was 60 and the “Plant response rating, Barnyardgrass” value [9, 16] was 60. The “Plant response rating, Barnyardgrass” value [9, 17] was 70, the “Plant response rating, Barnyardgrass” value [9, 18] was 0 and the “Plant response rating, Barnyardgrass” value [9, 19] was 20. For the same molecule, the “Plant response rating, Barnyardgrass” value [9, 20] was 50, the “Plant response rating, Barnyardgrass” value [9, 22] was 70 and the “Plant response rating, Barnyardgrass” value [9, 23] was 70. The “Plant response rating, Itchgrass” value [10, 13] was 60, the “Plant response rating, Itchgrass” value [10, 14] was 70 and the “Plant response rating, Itchgrass” value [10, 15] was 20. For the same molecule, the “Plant response rating, Itchgrass” value [10, 16] was 40, the “Plant response rating, Itchgrass” value [10, 17] was 60 and the “Plant response rating, Itchgrass” value [10, 18] was 10. The “Plant response rating, Itchgrass” value [10, 19] was 30, the “Plant response rating, Itchgrass” value [10, 20] was 80 and the “Plant response rating, Itchgrass” value [10, 21] was 85. The “Plant response rating, Itchgrass” value [10, 22] was 90, the “Plant response rating, Surinam Grass” value [11, 13] was 85 and the “Plant response rating, Surinam Grass” value [11, 14] was 90. For the same molecule, the “Plant response rating, Surinam Grass” value [11, 15] was 30, the “Plant response rating, Surinam Grass” value [11, 16] was 60 and the “Plant response rating, Surinam Grass” value [11, 17] was 90. For the same molecule, the “Plant response rating, Surinam Grass” value [11, 18] was 95, the “Plant response rating, Surinam Grass” value [11, 19] was 95 and the “Plant response rating, Surinam Grass” value [11, 20] was 95. For the same molecule, the “Plant response rating, Surinam Grass” value [11, 21] was 95, the “Plant response rating, Surinam Grass” value [11, 22] was 100 and the “Plant response rating, Johnsongrass” value [12, 13] was 95. For the same molecule, the “Plant response rating, Johnsongrass” value [12, 14] was 95, the “Plant response rating, Johnsongrass” value [12, 15] was 70 and the “Plant response rating, Johnsongrass” value [12, 16] was 70. The “Plant response rating, Johnsongrass” value [12, 17] was 95, the “Plant response rating, Johnsongrass” value [12, 18] was 20 and the “Plant response rating, Johnsongrass” value [12, 19] was 40. For the same molecule, the “Plant response rating, Johnsongrass” value [12, 20] was 60, the “Plant response rating, Johnsongrass” value [12, 21] was 75 and the “Plant response rating, Johnsongrass” value [12, 22] was 75.
